{
  "source": "patent US9107871B2",
  "about": "“LHRH—antagonists in the treatment of fertility disorders” (ZENTARIS IVP GMBH, priority 1996, dated 2015)",
  "tested_on": "patients undergoing COS/ART",
  "assay": "Phase II clinical trial of Cetrorelix in controlled ovarian stimulation/superovulation for assisted reproduction (COS/ART)",
  "type": "in vivo, human",
  "settings": "for premature LH surge: s.c., patients undergoing COS/ART",
  "experimental": "The results of a phase II clinical trial are shown in Table I. A total of 235 patients were treated. […] During multiple dosing, the mean days of Cetrorelix application is 6 days. 25 babies were born by the end of May 1996 (7 following multiple doses; 18 following single/dual doses). […] [table] 238 patients were treated with Cetrorelix by subcutaneous injection of Cetrorelix […]-Lyophilisat. 134 patients were treated with multiple doses and 104 patients with single or dual doses. The multiple doses are 0.25 mg/day or higher. The single dose was 3 mg or higher. […] Multiple doses were applied for 3 to a maximum of 10 days dependent on follicular development.",
  "key": {"[1]": {"settings": "multiple dose, dose/day, phase II dose finding"}},
  "note": "Where a SMILES comes first, the peptide text is derived from it. [ ]: non-standard residue; d: D form. dPhe(4-Cl) = N[C@H](Cc1ccc(Cl)cc1)C(=O)O; d2Nal = N[C@H](Cc1ccc2ccccc2c1)C(=O)O; dCit = NC(=O)NCCC[C@@H](N)C(=O)O; d3Pal = N[C@H](Cc1cccnc1)C(=O)O",
  "data": [
    {"smiles": "CC(=O)N[C@H](Cc1ccc2ccccc2c1)C(=O)N[C@H](Cc1ccc(Cl)cc1)C(=O)N[C@H](Cc1cccnc1)C(=O)N[C@@H](CO)C(=O)N[C@@H](Cc1ccc(O)cc1)C(=O)N[C@H](CCCNC(N)=O)C(=O)N[C@@H](CC(C)C)C(=O)N[C@@H](CCCNC(=N)N)C(=O)N1CCC[C@H]1C(=O)N[C@H](C)C(N)=O", "note": "[Cetrorelix] (Ac-[d2Nal][dPhe(4-Cl)][d3Pal]SY[dCit]LRP[dA]-NH2)", "values": [
      {"measurement": "premature LH surge (FIG. 1, time variation of hormonal levels)", "setting": "FIG. 1", "value": "absolute prevention of any premature LH surge"},
      {"measurement": "pregnancies obtained (number)", "setting": "all phase II patients, both regimens", "value": 71},
      {"measurement": "babies born (number)", "setting": "by the end of May 1996, all patients", "value": 25},
      {"measurement": "babies born (number)", "setting": "by the end of May 1996, following multiple doses", "value": 7},
      {"measurement": "babies born (number)", "setting": "by the end of May 1996, following single/dual doses", "value": 18},
      {"measurement": "babies born (number)", "setting": "following multiple doses", "value": 15},
      {"measurement": "babies born (number)", "setting": "following single/dual doses", "value": 29},
      {"measurement": "pregnancies obtained (number)", "setting": "multiple dose regimen, of 134 patients", "value": 38},
      {"measurement": "minimal effective dose", "setting": "[1]", "value": 0.25, "unit": "min. effect. dose mg"},
      {"measurement": "no effect dose", "setting": "[1]", "value": 0.10, "unit": "no effect. dose mg"},
      {"measurement": "premature LH surge", "setting": "multiple doses of 0.25 mg/day or higher", "value": "No premature LH surge"},
      {"measurement": "premature LH surge", "setting": "single dose of 3 mg or higher", "value": "No premature LH surge"},
      {"measurement": "duration of effect to prevent a premature LH surge", "setting": "single dose regimen (one single injection of 3 mg)", "value": "up to 6.5 days"},
      {"measurement": "pregnancies obtained (number)", "setting": "single/dual dosage regimen, of 104 patients", "value": 33}
    ]}
  ]
}
